From PubChem BioAssay (NCI)
Several values for one entry are separate records, joined by “and”; a condition that tells them apart may be missing. Equal values may be shown once.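 Method: 48-hour compound exposure of cells in 96-well plates, five concentrations, linear interpolation of endpoints. Abbreviation: GI50, concentration required for 50% inhibition of growth. TGI denotes the concentration required for complete inhibition of growth.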

What was measured:
Assay in all cases: NCI tumour cell line growth inhibition, 48 h
786-0 renal = test system: 786-0 renal
SW-620 colon = test system: SW-620 colon
SF-539 CNS = test system: SF-539 CNS
M14 melanoma = test system: M14 melanoma
UACC-257 melanoma = test system: UACC-257 melanoma
NCI-H460 lung = test system: NCI-H460 lung
CAKI-1 renal = test system: CAKI-1 renal
HCC-2998 colon = test system: HCC-2998 colon
IGROV1 ovarian = test system: IGROV1 ovarian
DU-145 prostate = test system: DU-145 prostate

| SMILES | GI50 (786-0 renal) | TGI (786-0 renal) | GI50 (SW-620 colon) | TGI (SW-620 colon) | GI50 (SF-539 CNS) | TGI (SF-539 CNS) | GI50 (M14 melanoma) | TGI (M14 melanoma) | GI50 (UACC-257 melanoma) | TGI (UACC-257 melanoma) | GI50 (NCI-H460 lung) | TGI (NCI-H460 lung) | GI50 (CAKI-1 renal) | TGI (CAKI-1 renal) | GI50 (HCC-2998 colon) | TGI (HCC-2998 colon) | GI50 (IGROV1 ovarian) | TGI (IGROV1 ovarian) | GI50 (DU-145 prostate) | TGI (DU-145 prostate) |
| --- | --- | --- | --- | --- | --- | --- | --- | --- | --- | --- | --- | --- | --- | --- | --- | --- | --- | --- | --- | --- |
| Nc1nccc2c1ccn2-c1ccc(NC(=O)c2ccc(N3CCOCC3)c(C(F)(F)F)c2)cc1 | 0.207 µM | 0.529 µM | 1.06 µM | 4.14 µM | 0.491 µM | 5.96 µM | 0.622 µM | 2.54 µM | 2.15 µM | 8.61 µM | 0.352 µM | 1.65 µM | 0.484 µM | 3.45 µM | 2.98 µM | 29.1 µM | 1.56 µM | 30.4 µM | 2.66 µM | 20.5 µM |
| Cc1nc2cnc(N)c(C#Cc3cncc(C(=O)Nc4ccc(CN5CCN(C)CC5)c(C(F)(F)F)c4)c3)c2nc1C | 2.58 µM | 14.8 µM | 0.279 µM | 3.21 µM | 0.313 µM | 3.69 µM | 0.0903 µM | 0.339 µM | 0.189 µM | 1.74 µM | 0.478 µM | 11.7 µM | 0.31 µM | 1.54 µM | 0.651 µM | 13.1 µM | 0.266 µM | 1.21 µM | 0.409 µM | 11.2 µM |
| COc1cccc2c1C(=O)c1c(O)c3c(c(O)c1C2=O)CC(O)(/C(C)=N/NC(=O)CCC(=O)N/N=C(\C)C1(O)Cc2c(O)c4c(c(O)c2C(OC2CC(N)C(O)C(C)O2)C1)C(=O)c1c(OC)cccc1C4=O)CC3OC1CC(N)C(O)C(C)O1 (configuration not stated) | 0.182 µM | 1.06 µM | 0.193 µM | 5.36 µM | 0.179 µM | 0.859 µM | 0.292 µM | 2.12 µM | 0.781 µM | 3.28 µM | 0.0981 µM | 0.947 µM | 0.895 µM | 17.7 µM | 0.508 µM | 1.46 µM | 0.108 µM | 1.08 µM | 0.302 µM | 2.97 µM |
| COc1cc(CNCCCN2C(=O)c3ccc4c5c(ccc(c35)C2=O)C(=O)N(CCCNCc2cc(OC)c(OC)c(OC)c2)C4=O)cc(OC)c1OC | 0.944 µM | 2.39 µM | 0.203 µM | 0.785 µM | 0.653 µM | 1.39 µM | 0.841 µM | 1.6 µM | 0.283 µM | 0.541 µM | 0.316 µM | 1.04 µM | 3.28 µM | 9.64 µM | 0.363 µM | 0.915 µM | 0.24 µM | 1.06 µM | 0.436 µM | 1.11 µM |
| COc1cc(C2c3cc4c(cc3C(O)C(CO)C2CO)OCO4)cc(OC)c1OC (configuration not stated) | 6.59 µM | > 100 µM | 0.37 µM | > 100 µM | 0.335 µM | – | 0.706 µM | > 100 µM | 0.67 µM | > 100 µM | 0.463 µM | > 26.4 µM | 3.09 µM | > 46.2 µM | 1.78 µM | > 100 µM | 0.551 µM | > 25.9 µM | 0.965 µM | 15.4 µM |
| O=C(c1c(F)ccc(NS(=O)(=O)N2CC[C@@H](F)C2)c1F)c1c[nH]c2ncc(-c3cnc(C4CC4)nc3)cc12 | 5.46 µM and 6.36 µM | > 10 µM and 56.7 µM | > 7.76 µM and 10.9 µM | > 10 µM and 35 µM | 6.74 µM and 6.17 µM | > 10 µM and 23.7 µM | 0.00625 µM and < 0.01 µM | > 4.09 µM and 10.4 µM | 0.00965 µM and < 0.01 µM | 0.174 µM and 0.0739 µM | 4.25 µM and 4.67 µM | > 10 µM and 26.3 µM | 3.22 µM and 3.29 µM | > 10 µM and 29.8 µM | > 10 µM and 12.5 µM | > 10 µM and 29.8 µM | 2.35 µM and 2.14 µM | > 10 µM and 17 µM | 6.03 µM and 5.37 µM | > 76.8 µM |
| COc1ccc(-c2oc(=O)ccc2-c2cc(OC)c(OC)c(OC)c2)cc1F | 36.4 µM | > 100 µM | 5.79 µM | > 100 µM | 19.8 µM | 80.3 µM | 14.1 µM | > 100 µM | 31.5 µM | > 100 µM | 5.43 µM | > 100 µM | 9.64 µM | > 100 µM | 33.4 µM | > 100 µM | – | – | 32 µM | > 100 µM |
| COc1ccccc1N1CCN(CCCn2c(=O)c3c(OC)nc(C)cc3c(=O)n2-c2ccccc2)CC1 | > 100 µM | > 100 µM | > 100 µM | > 100 µM | > 100 µM | > 100 µM | > 100 µM | > 100 µM | – | – | > 100 µM | > 100 µM | > 100 µM | > 100 µM | > 100 µM | > 100 µM | > 100 µM | > 100 µM | > 100 µM | > 100 µM |
| COC1C(O)=C2C(=O)O/C(C)=C/C=C/C=C/C=C\CC(c3ccccc3)NC(=O)\C=C/C=C\C=C\C=C\[C@@]2(C)[C@@H]1O (some centres not stated) | – | 0.148 µM | – | 0.139 µM | – | 0.047 µM | – | 0.35 µM | – | 0.165 µM | – | – | – | 0.0582 µM | – | 0.586 µM | – | 0.287 µM | – | 0.178 µM |
| NS(=O)(=O)c1ccc(N(/C=C/C(=O)C(F)(F)F)CC(=O)c2ccc(Cl)cc2)cc1 | 45.2 µM | > 100 µM | 57 µM | > 100 µM | 43.4 µM | > 100 µM | – | – | 50.9 µM | > 100 µM | 31.8 µM | 89 µM | 24.4 µM | 66 µM | 55.7 µM | > 100 µM | 22.5 µM | 81.7 µM | 93.3 µM | > 100 µM |
